As usually defined, the EC50 is the concentration at which the effect is half-maximal. Broadly, the AC50 is the concentration at which the activity in the assay is half-maximal. Broadly, the IC50 is the concentration that inhibits the measured activity by half. As a reminder, the CC50 is the concentration at which the toxic effect on the cells reaches its halfway point.

These results are taken from ChEMBL document CHEMBL1201862, “PubChem BioAssay data set” (2004).

Active and inactive are the calls of the source.

Test [1] is described as follows: viability of HCT116 lacking mutant beta-catenin – cell-based, human colon tumor, dose response (AID 1045).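 Further: HCT116 colon tumor cells with beta catenin knocked out; cells exposed to compound for 60 hours.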 In kind it is functional.
The target in test [2] is T1, Replicative DNA helicase DnaB (Mycobacterium tuberculosis, UniProt P9WMR3).
T1 sequence (P9WMR3 whole entry): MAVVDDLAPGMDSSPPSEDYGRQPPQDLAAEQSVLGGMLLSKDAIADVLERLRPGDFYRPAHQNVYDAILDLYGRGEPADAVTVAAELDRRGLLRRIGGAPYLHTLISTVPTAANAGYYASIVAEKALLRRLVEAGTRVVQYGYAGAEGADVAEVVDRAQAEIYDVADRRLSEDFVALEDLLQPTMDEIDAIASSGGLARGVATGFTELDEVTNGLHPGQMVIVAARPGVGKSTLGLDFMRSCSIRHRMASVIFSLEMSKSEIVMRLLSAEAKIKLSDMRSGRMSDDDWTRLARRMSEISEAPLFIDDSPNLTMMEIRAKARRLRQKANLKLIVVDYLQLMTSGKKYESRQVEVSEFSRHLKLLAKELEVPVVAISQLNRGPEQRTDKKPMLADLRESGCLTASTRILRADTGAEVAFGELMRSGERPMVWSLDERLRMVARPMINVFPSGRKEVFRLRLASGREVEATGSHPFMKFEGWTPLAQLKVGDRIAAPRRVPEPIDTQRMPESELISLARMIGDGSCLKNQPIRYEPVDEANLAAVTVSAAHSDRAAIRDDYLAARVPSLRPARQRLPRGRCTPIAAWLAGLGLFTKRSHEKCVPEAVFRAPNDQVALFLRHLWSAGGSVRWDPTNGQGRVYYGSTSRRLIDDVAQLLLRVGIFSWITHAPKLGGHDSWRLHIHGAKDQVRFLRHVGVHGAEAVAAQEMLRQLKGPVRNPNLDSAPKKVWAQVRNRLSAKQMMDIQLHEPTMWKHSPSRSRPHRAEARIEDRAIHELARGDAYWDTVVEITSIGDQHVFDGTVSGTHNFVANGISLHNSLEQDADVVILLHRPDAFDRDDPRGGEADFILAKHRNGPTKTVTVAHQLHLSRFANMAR
Briefly: DnaB intein splicing inhibitors, dose response, biochemical, cell-free fluorescence (AID 449749). The format is functional.

A further test has as its target T2, Hexokinase HKDC1 (Homo sapiens, UniProt Q2TB90).
T2 sequence (Q2TB90 whole entry): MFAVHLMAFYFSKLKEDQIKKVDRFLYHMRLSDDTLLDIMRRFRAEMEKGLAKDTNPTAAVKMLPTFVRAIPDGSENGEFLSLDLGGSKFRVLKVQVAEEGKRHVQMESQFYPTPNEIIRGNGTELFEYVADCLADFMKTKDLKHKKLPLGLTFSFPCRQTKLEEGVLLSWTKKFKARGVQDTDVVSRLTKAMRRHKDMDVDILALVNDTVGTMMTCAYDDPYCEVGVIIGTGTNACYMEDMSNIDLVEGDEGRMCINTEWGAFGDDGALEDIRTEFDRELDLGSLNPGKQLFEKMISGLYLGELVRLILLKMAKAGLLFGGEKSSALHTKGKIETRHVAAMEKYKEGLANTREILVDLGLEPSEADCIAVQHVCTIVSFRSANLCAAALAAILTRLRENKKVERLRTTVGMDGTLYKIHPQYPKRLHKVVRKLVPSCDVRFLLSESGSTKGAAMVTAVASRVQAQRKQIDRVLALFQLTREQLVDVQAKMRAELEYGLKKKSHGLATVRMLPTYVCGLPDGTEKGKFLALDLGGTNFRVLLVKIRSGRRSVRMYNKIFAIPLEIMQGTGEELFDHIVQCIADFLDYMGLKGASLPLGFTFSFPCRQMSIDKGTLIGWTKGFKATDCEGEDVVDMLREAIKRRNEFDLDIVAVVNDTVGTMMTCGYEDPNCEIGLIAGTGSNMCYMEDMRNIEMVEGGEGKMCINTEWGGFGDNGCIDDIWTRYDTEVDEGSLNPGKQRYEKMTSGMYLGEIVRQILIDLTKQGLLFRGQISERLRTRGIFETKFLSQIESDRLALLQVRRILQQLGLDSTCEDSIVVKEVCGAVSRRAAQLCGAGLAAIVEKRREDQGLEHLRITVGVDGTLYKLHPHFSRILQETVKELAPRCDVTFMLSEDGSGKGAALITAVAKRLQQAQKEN
In words: inhibition of HKDC1 glucose phosphorylation – biochemical, W721R variant, dose response (AID 504729). In kind it is functional.

The target in a further test is T3, Streptokinase A (Streptococcus pyogenes serotype M1, UniProt P10520).
T3 sequence (P10520 whole entry): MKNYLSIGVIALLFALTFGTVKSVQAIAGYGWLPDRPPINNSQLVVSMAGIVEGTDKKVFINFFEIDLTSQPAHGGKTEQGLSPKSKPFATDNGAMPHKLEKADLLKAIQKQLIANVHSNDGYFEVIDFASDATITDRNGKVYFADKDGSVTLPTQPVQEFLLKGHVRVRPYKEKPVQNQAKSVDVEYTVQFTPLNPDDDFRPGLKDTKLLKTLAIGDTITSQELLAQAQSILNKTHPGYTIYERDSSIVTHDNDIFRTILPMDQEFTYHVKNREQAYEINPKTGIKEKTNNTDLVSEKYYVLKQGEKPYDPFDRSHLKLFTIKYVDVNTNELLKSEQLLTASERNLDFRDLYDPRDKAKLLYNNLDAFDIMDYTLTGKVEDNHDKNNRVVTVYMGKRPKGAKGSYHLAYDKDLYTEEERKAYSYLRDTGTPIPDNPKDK
In words: viability-normalized secreted streptokinase activity reduction – plasminogen activation absorbance, OD405, dose response (AID 1914).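 Further: secreted streptokinase activity via plasminogen activation per viability signal from cell pellet.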 In kind it is functional, Streptococcus pyogenes M1 GAS.

In test [3] the target is T4, Type-1 angiotensin II receptor (Homo sapiens, UniProt P30556).
T4 sequence (P30556 whole entry): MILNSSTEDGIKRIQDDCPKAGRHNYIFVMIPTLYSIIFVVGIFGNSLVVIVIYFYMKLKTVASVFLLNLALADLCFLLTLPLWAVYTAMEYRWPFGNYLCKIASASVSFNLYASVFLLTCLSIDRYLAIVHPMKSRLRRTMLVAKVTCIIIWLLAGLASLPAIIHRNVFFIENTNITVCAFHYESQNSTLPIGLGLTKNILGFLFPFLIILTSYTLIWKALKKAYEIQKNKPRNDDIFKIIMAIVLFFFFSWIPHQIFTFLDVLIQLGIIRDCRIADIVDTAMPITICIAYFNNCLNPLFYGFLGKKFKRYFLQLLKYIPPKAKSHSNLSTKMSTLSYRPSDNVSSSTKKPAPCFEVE
In words: antagonism of angiotensin II type 1 receptor – cell-based, uHTS hits, selectivity assay for APJ receptor antagonist project, dose response (AID 463214).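 Further: antagonist potency against angiotensin II stimulated AT1 response.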 In kind it is functional.

The nature of test [4]: HepG2 cell cytotoxicity, dose response, cytotoxicity control for non-replicating M. tuberculosis project (AID 489018). The format is functional. Conditions: Mycobacterium tuberculosis.
A short description of test [5]: loss of viability in HepG2 cells – cell-based, CellTiter-Glo, cherry-picked, cytotoxicity control for Shn3 inhibitor project, dose response (AID 624134). In kind it is functional. Background: In ATP-based viability assays light output follows the ATP content of the culture.
The next test in a line: cells. The format is functional.
Test [6] in a line: non-specific 3'UTR reporter inhibition in Clone20-Shn3RL – cell-based, Renilla luciferase, cherry-picked, counter-screen for Shn3 inhibitor project, dose response (AID 624133). In kind it is functional. On the technique in general: The purpose of a counterscreen is to sort out artefacts and off-target activity.
Test [7] has as its system BJ. Briefly: BJ-TERT fibroblast viability loss – cell-based, RAS-independent, luminescence, dose response (AID 1933). The format is functional. The settings on record: Homo sapiens.
Test [8] has as its system BJ. Briefly: cells. The format is functional, cell-based. The settings on record: Homo sapiens.

Turning to `[O-][N+]1=c2ccc(Nc3ccccc3)cc2=NC12CCCCC2`, in test [1], the concentration giving a half-maximal response (EC50) was 1.62 µM (active). For the same compound, the AC50 in test [2] is > 380 µM (inactive).
For `CCc1ccc(S(=O)(=O)/N=C2\C=C(Nc3ccc(C(=O)O)cc3)C(=O)c3ccccc32)cc1`, the 50% inhibitory concentration (IC50) at Hexokinase HKDC1 is 6.5 µM (active). For the same compound, the EC50 at Streptokinase A was > 150 µM (not active). In addition, the concentration at half-maximal activity (AC50) in test [2] was > 380 µM (inconclusive).
As to `Oc1c(C(c2ccccc2Cl)N2CCCC2)ccc2cccnc12` (configuration not stated), the half-maximal inhibitory concentration (IC50) is 12 µM (active) in test [3] and 13.2 µM (active) in the test “cells”. For the same compound, in test [4], the CC50 was 17.6 µM (active). Besides, the values for the AC50 in test [5] and in [6] were 46.9 µM (active) and 6.38 µM (active), respectively.
Take `COc1cccc(/C=N/Nc2ccc([N+](=O)[O-])cn2)c1O`: the EC50 with BJ [7] is 3.31 µM (inconclusive); in the test with BJ [8], 9.14 µM (inconclusive).
